# Laboratory results reported in patent publication US4931447A, “Cycloalkylamides of (8β)-1-alkyl-6-(substituted) ergolines” (Eli Lilly and Company, priority 1989, dated 1990).
# Counter-ions that a name gives are not always drawn.
# Molecular target: T1, 5HT2 Receptors (Rattus norvegicus, UniProt P14842)
# T1 construct: from tissue; host or cells: rat external jugular vein (isolated, male Wistar)
# Test: Apparent antagonist dissociation constant (KB) at 5HT2 receptors, serotonin-induced contraction of isolated rat external jugular vein
# Assay type: cell-based, rat (male Wistar)
# Details: not given
# Text: Male Wistar rats (about 150-300 gram weight) were killed and their external jugular veins and thoracic aortas dissected free of connective tissue, cannulated in situ and placed in a modified Krebs' bicarbonate buffer in a suitable tissue bath. Two L-shaped 30-gauge stainless-steel hypodermic needles were inserted in each cannula and the dissected vessels gently pushed onto the needles. One needle was attached with thread to a stationary glass rod and the other to the transducer. [The procedure employed was that described by Hooker, Calkins and Fleisch, Blood Vessels, 14, 1, (1977) for use with circular smooth muscle preparations.]
# The modified Krebs' bicarbonate buffer was composed of the following (concentrations in millimoles): sodium chloride, 118.2; potassium chloride, 4.6; calcium chloride dihydrate, 1.6; potassium dihydrogenphosphate, 1.2; magnesium sulfate, 1.2; dextrose, 10.0; sodium bicarbonate, 24.8; and water q.s. to 1000 g. The tissue baths were maintained at 37° C. and were aerated with 95% oxygen: 5% carbon dioxide (v:v). An initial optimum resting force of 1 g and 4 g was applied to the jugular vein and aorta, respectively. Isometric contractions were recorded as changes in grams of force on a Beckman Dynograph with Statham UC-3 transducers and microscale accessory attachment. Tissues were allowed to equilibrate 1 to 2 hours before exposure to drugs. Control responses to serotonin in the jugular vein and to norepinephrine in the aorta were obtained. The vessels were then incubated with appropriate concentrations of the test compound for one hour. Responses to serotonin or to norepinephrine were then repeated in the presence of the test compound. Contraction to serotonin was evaluated in the jugular vein since this tissue produces marked responses to serotonin in the absence of alpha receptors. See Cohen and Wiley, J. Pharm. Exp. Ther., 205, 400 (1978). Alpha receptor antagonist activity was evaluated in the aorta.
# Apparent antagonist dissociation constants were determined for each concentration of the test compound according to the following equation: [formula] wherein [B] is the concentration of the antagonist and the dose ratio is the ED50 of the agonist in the presence of the antagonist divided by the control ED50. […] The -log KB values obtained for representative sensitive compounds of this invention and are given below in Table 1. ln the Table, column I provides the Example Number of the compound evaluated in the screen; columns 2-6, the identity of the compound evaluated in the screen when taken with the structure provided; and column 7, the apparent dissociation constant for the test compound.
# T1 sequence (P14842 whole entry): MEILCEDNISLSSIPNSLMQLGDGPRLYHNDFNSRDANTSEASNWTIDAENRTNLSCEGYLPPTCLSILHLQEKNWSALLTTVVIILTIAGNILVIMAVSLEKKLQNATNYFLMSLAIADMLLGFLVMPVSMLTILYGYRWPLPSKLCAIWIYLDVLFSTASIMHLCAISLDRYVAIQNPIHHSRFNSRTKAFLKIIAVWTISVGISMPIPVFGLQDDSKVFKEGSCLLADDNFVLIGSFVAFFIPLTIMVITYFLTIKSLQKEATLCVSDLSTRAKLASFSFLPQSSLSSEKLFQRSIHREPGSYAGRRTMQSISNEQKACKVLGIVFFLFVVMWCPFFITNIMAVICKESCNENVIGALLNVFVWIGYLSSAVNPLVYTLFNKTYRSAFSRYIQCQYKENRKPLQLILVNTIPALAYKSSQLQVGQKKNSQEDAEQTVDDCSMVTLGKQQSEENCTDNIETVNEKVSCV
row,SMILES,Kb [nM]
1,"CC(C)n1cc2c3c(cccc31)[C@H]1C[C@@H](C(=O)NC3CCCC3)CN(C)[C@@H]1C2 [Example 9, (8β)-N-Cyclopentyl-1-isopropyl-6-methylergoline-8-carboxamide]",0.0468
2,"CN1C[C@H](C(=O)NC2CCCCC2)C[C@@H]2c3cccc4c3c(cn4C)C[C@H]21 [Example 8, (8β)-N-Cyclohexyl-1,6-dimethylergoline-8carboxamide]",0.2
3,"CC1CCC(NC(=O)[C@@H]2C[C@@H]3c4cccc5c4c(cn5C(C)C)C[C@H]3N(C)C2)CC1 (stereo partly drawn) [Example 13, (8β)-N-(4-Methylcyclohexyl)-1-isopropyl-6-methylergoline-8-carboxamide]",6.46
4,"CCn1cc2c3c(cccc31)[C@H]1C[C@@H](C(=O)NC3CCCCC3)CN(C)[C@@H]1C2 [Example 10, (8β)-N-Cyclohexyl-1-ethyl-6-methylergoline-8-carboxamide]",0.562
5,"CO[C@H]1CC[C@H](NC(=O)[C@@H]2C[C@@H]3c4cccc5c4c(cn5C(C)C)C[C@H]3N(C)C2)CC1 (relative stereo) [Example 5, (8β)-trans-N-(4-Methoxycyclohexyl)-1-isopropyl-6-methylergoline-8-carboxamide]",0.186
6,"CO[C@H]1CC[C@@H](NC(=O)[C@@H]2C[C@@H]3c4cccc5c4c(cn5C)C[C@H]3N(C)C2)CC1 [Example 6, (8β)-cis-N-(4-Methoxycyclohexyl)-1,6-dimethylergoline-8-carboxamide maleate]",0.269
7,"CC(C)n1cc2c3c(cccc31)[C@H]1C[C@@H](C(=O)NC3CCCCC3O)CN(C)[C@@H]1C2 (stereo partly drawn) [Example 14, (8β)-N-(2-Hydroxycyclohexyl)-1-isopropyl-6-methylergoline-8-carboxamide]",0.0275
8,"CCn1cc2c3c(cccc31)[C@H]1C[C@@H](C(=O)N[C@H]3CC[C@@H](OC)CC3)CN(C)[C@@H]1C2 [Example 7, (8β)-cis-N-(4-Methoxycyclohexyl)-1-ethyl-6-methylergoline-8-carboxamide maleate]",0.229
9,"CC(C)n1cc2c3c(cccc31)[C@H]1C[C@@H](C(=O)NC3CCCCCC3)CN(C)[C@@H]1C2 [Example 12, (8β)-N-Cycloheptyl-1-isopropyl-6-methylergoline-8-carboxamide]",1.05
10,"CCCN1C[C@H](C(=O)NC2CCCCC2)C[C@@H]2c3cccc4c3c(cn4C(C)C)C[C@H]21 [Example 3, (8β)-N-Cyclohexyl-1-isopropyl-6-n-propylergoline-8-carboxamide]",0.794

# Same assay, conditions: rat external jugular vein, antagonism of serotonin contraction, 1 h incubation, 37° C; read-out: 5HT2 -Log KB (apparent dissociation constant) (converted)
row,SMILES,Kb [nM]
1,"CC(C)n1cc2c3c(cccc31)[C@H]1C[C@@H](C(=O)N[C@H]3CC[C@H](O)CC3)CN(C)[C@@H]1C2 [Example 11, (8β)-trans-N-(4-Hydroxycyclohexyl)-1-isopropyl-methylergoline-8-carboxamide]",6.46
2,"CC(C)n1cc2c3c(cccc31)[C@H]1C[C@@H](C(=O)N(C)C3CCCCC3)CN(C)[C@@H]1C2 [Example 2, (8β-N-Cyclohexyl-N-methyl-1-isopropyl-6-methylergoline-8-carboxamide maleate]",1
3,"CO[C@H]1CC[C@@H](NC(=O)[C@@H]2C[C@@H]3c4cccc5c4c(cn5C(C)C)C[C@H]3N(C)C2)CC1 [Example 4, (8β)-cis-N-(4-Methoxycyclohexyl)-1-isopropyl-methylergoline-8-carboxamide]",0.186
